Data reported in publication PMC4001856 (Brain research, 2013).

Molecular target: APP (amyloid precursor protein) (Homo sapiens, UniProt P05067)
Test: SPR
Format: binding

APP (amyloid precursor protein), sequence (P05067 230-624 isoform P05067-4): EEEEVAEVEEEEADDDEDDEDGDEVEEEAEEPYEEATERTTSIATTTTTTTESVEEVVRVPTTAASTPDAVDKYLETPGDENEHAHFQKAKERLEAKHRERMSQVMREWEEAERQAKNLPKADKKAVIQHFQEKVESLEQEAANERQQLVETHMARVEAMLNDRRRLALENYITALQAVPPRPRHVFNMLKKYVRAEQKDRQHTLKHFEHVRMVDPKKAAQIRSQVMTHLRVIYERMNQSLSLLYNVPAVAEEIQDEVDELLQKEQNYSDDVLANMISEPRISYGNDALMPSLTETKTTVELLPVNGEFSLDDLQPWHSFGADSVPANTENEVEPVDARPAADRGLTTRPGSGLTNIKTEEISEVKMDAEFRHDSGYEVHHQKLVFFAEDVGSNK

CN1[C@@H]2CC[C@H]1C[C@@H](OC(=O)c1c[nH]c3ccccc13)C2 [tropisetron]
Kd: 900 nM
